Measured values published in patent US8247211B2, “Glycopeptide antibiotics” (American Cyanamid Company, priority 2001, dated 2012).
≈ marks a conversion by molar mass, not a printed value.

What was measured:
[1] = system: Enterococcus sp.; assay: In vitro antibacterial evaluation: minimum inhibitory concentration (MIC), broth dilution method; format: cell-based
Outline: (§1)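 MIC by broth dilution in Mueller-Hinton II medium following NCCLS M7-A2. Inoculum was 5×10^5 CFU/mL and antibiotic was tested over 64-0.06 μg/mL. Gram-positive panel included clinical isolates resistant to methicillin, penicillin and/or vancomycin.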

[2] = system: Escherichia coli; assay: as above; format: cell-based
Outline: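 NCCLS M7-A2 broth dilution with Mueller-Hinton II, testing 64-0.06 μg/mL antibiotic against 5×10^5 CFU/mL inocula. Test strains include recent methicillin-, penicillin- or vancomycin-resistant clinical isolates. MIC is the lowest concentration preventing growth.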

[3] = system: Staphylococcus sp.; assay: as above; format: cell-based
Outline: as §1

[4] = system: Streptococcus sp.; assay: as above; format: cell-based
Outline: as §1

[5] = system: Staphylococcus aureus-SMITH (GC 4543); assay: Acute lethal infection in mice (ED50); format: in vivo; details: female CD-1 mice, intraperitoneal challenge, intravenous dose 30 min. after infection, 7 day survival ratios
Method: The therapeutic effects of glycopeptide antibiotics of Formula I are determined against acute lethal infections with S. aureus (strain Smith), a penicillin resistant strain of S. pneumoniae (strain GC 1894), and a vancomycin resistant strain of E. fecalis (strain GC 6189 and GC 2246). Female mice, CD-1 (Charles River Laboratories), 20 +1-2 gm, are challenged by intraperitoneal injection of sufficient bacteria (suspended in Trypticase Soy Broth or hog gastric mucin) to kill non-treated controls within 24-48 hr. Antibacterial agents, contained in 0.2 mL of saline or 5% dextrose solution, are administered intravenously 30 min. after infection. Five mice are treated at each dose level. The 7 day survival ratios from 3 separate tests are pooled for calculation of median effective dose (ED50).

[6] = broth dilution, 18 hours at 35° C.
[7] = broth dilution, 5×10^5 CFU/mL, 18 hours at 35° C.
[8] = 5×10^5 CFU/mL, 18 hours at 35° C.

CC(c1ccccc1)C1NC(=O)CNC(=O)C(CO)NC(=O)C(CC2CN(Cc3ccccc3)C(=N)N2C2OC(CO)C(O)C(O)C2O)NC(=O)C(CC2CNC(=N)N2)NC(=O)C(Cc2ccc(OC3OC(CO)C(OC4OC5COC6(OC5C(O)C4O)C4CC5CC(C4)CC6C5)C(O)C3O)cc2)NC1=O (stereo not drawn) [Example 80, Cyclo[3-(2-iminoimidazolidin-4-yl)alanyl-3-(1-benzyl-3-hexopyranosyl-2-iminoimidazolidin-4-yl)alanylserylglycyl-β-methylphenylalanyl-O-[4-O-[4,6-O-(2-adamantylidene)hexopyranosyl]hexopyranosyl]tyrosyl]]
MIC Enterococcus faecalis (GC 2242) ([1]; Enterococcus faecalis (GC 2242), broth dilution, 18 hours at 35° C.): 32 µg/mL (≈ 21.5 µM) | MIC Enterococcus faecalis (GC 2691) ([1]; Enterococcus faecalis (GC 2691), broth dilution, 18 hours at 35° C.): 64 µg/mL (≈ 43.1 µM) | MIC Enterococcus faecalis (GC 3059) ([1]; Enterococcus faecalis (GC 3059), broth dilution, 18 hours at 35° C.): 64 µg/mL (≈ 43.1 µM) | MIC Enterococcus faecalis (ATCC 29212) ([1]; strain ATCC 29212): 64 µg/mL (≈ 43.1 µM) | MIC Enterococcus faecalis (GC 2242) ([1]; strain GC 2242): 32 µg/mL (≈ 21.5 µM) | MIC Enterococcus faecium (GC 2243) ([1]; strain GC 2243): 32 µg/mL (≈ 21.5 µM) | MIC Enterococcus faecalis (GC 2691) ([1]; strain GC 2691): 64 µg/mL (≈ 43.1 µM) | MIC Enterococcus faecalis (GC 3059) ([1]; strain GC 3059): 64 µg/mL (≈ 43.1 µM) | MIC Enterococcus faecalis (GC 4552) ([1]; strain GC 4552): 64 µg/mL (≈ 43.1 µM) | MIC Enterococcus faecalis (GC 4553) ([1]; strain GC 4553): 32 µg/mL (≈ 21.5 µM) | MIC Enterococcus faecalis (GC 4554) ([1]; strain GC 4554): 64 µg/mL (≈ 43.1 µM) | MIC Enterococcus faecium (GC 4556) ([1]; strain GC 4556): 64 µg/mL (≈ 43.1 µM) | MIC Enterococcus faecium (GC 4557) ([1]; strain GC 4557): 16 µg/mL (≈ 10.8 µM) | MIC Enterococcus avium (GC 4558) ([1]; strain GC 4558): 32 µg/mL (≈ 21.5 µM) | MIC Enterococcus faecalis (GC 6189) ([1]; strain GC 6189): 64 µg/mL (≈ 43.1 µM) | MIC Escherichia coli (ATCC 25922) ([2]; strain ATCC 25922): >64 µg/mL | MIC Escherichia coli (GC 4559) ([2]; strain GC 4559): >64 µg/mL | MIC Escherichia coli (GC 4560) ([2]; strain GC 4560): 8 µg/mL (≈ 5.38 µM) | MIC Coagulase Negative Staphylococcus (GC 4547) [3, 6]: 32 µg/mL (≈ 21.5 µM) | MIC Coagulase Negative Staphylococcus (GC 4548) [3, 6]: 32 µg/mL (≈ 21.5 µM) | MIC Coagulase Negative Staphylococcus (GC 4549) [3, 6]: 32 µg/mL (≈ 21.5 µM) | MIC Coagulase Negative Staphylococcus (GC 4551) [3, 6]: 32 µg/mL (≈ 21.5 µM) | MIC Coagulase Negative Staphylococcus (GC 6257) [3, 6]: 8 µg/mL (≈ 5.38 µM) | MIC Staphylococcus aureus (ATCC 29213) [3, 6]: 32 µg/mL (≈ 21.5 µM) | MIC Staphylococcus aureus (GC 1131) [3, 6]: 32 µg/mL (≈ 21.5 µM) | MIC Staphylococcus aureus (GC 3051) [3, 6]: 32 µg/mL (≈ 21.5 µM) | MIC Staphylococcus aureus (GC 3053) [3, 6]: 64 µg/mL (≈ 43.1 µM) | MIC Staphylococcus aureus (GC 4541) [3, 6]: 32 µg/mL (≈ 21.5 µM) | MIC Staphylococcus aureus (GC 4542) [3, 6]: 32 µg/mL (≈ 21.5 µM) | MIC Staphylococcus aureus (GC 4544) [3, 6]: 32 µg/mL (≈ 21.5 µM) | MIC Staphylococcus aureus (GC 4545) [3, 6]: 32 µg/mL (≈ 21.5 µM) | MIC Staphylococcus aureus SMITH (GC 4543) [3, 6]: 32 µg/mL (≈ 21.5 µM) | MIC Staphylococcus haemolyticus (GC 4546) [3, 6]: 32 µg/mL (≈ 21.5 µM) | MIC Staphylococcus aureus-SMITH (GC 4543) ([3]; strain SMITH GC 4543, broth dilution, 18 hours at 35° C.): 32 µg/mL (≈ 21.5 µM) | MIC Streptococcus agalactiae (GC 4564) ([4]; Streptococcus agalactiae (GC 4564), broth dilution, 18 hours at 35° C.): 8 µg/mL (≈ 5.38 µM) | MIC Streptococcus pneumoniae (ATCC 6301) ([4]; Streptococcus pneumoniae (ATCC 6301), broth dilution, 18 hours at 35° C.): 8 µg/mL (≈ 5.38 µM) | MIC Streptococcus pneumoniae (GC 1894) ([4]; Streptococcus pneumoniae (GC 1894), broth dilution, 18 hours at 35° C.): 4 µg/mL (≈ 2.69 µM) | MIC Streptococcus pneumoniae (GC 4565) ([4]; Streptococcus pneumoniae (GC 4565), broth dilution, 18 hours at 35° C.): 16 µg/mL (≈ 10.8 µM) | MIC Streptococcus pyogenes (GC 4563) ([4]; Streptococcus pyogenes (GC 4563), broth dilution, 18 hours at 35° C.): 8 µg/mL (≈ 5.38 µM) | MIC Streptococcus pneumoniae (ATCC 6301) ([4]; strain ATCC 6301): 8 µg/mL (≈ 5.38 µM) | MIC Streptococcus pneumoniae (GC 1894) ([4]; strain GC 1894): 4 µg/mL (≈ 2.69 µM) | MIC Streptococcus pyogenes (GC 4563) ([4]; strain GC 4563): 8 µg/mL (≈ 5.38 µM) | MIC Streptococcus agalactiae (GC 4564) ([4]; strain GC 4564): 8 µg/mL (≈ 5.38 µM) | MIC Streptococcus pneumoniae (GC 4565) ([4]; strain GC 4565): 16 µg/mL (≈ 10.8 µM) | median effective dose (ED50), Staphylococcus aureus-SMITH (GC 4543) [5]: >8

COc1ccc(CC2OCC3OC(OC4C(CO)OC(Oc5ccc(CC6NC(=O)C(C(C)c7ccccc7)NC(=O)CNC(=O)C(CO)NC(=O)C(C(O)C7CNC(=N)N7C7OC(CO)C(O)C(O)C7O)NC(=O)C(C(O)C7CNC(=N)N7)NC6=O)cc5)C(O)C4O)C(O)C(O)C3O2)cc1 (stereo not shown) [Example 103]
MIC Enterococccus avium (GC 4558) [1, 7]: 8 µg/mL (≈ 5.6 µM) | MIC Enterococccus faecalis (ATCC 29212) [1, 7]: 4 µg/mL (≈ 2.8 µM) | MIC Enterococccus faecalis (GC 2691) [1, 7]: 8 µg/mL (≈ 5.6 µM) | MIC Enterococccus faecalis (GC 3059) [1, 7]: 8 µg/mL (≈ 5.6 µM) | MIC Enterococccus faecalis (GC 4552) [1, 7]: 8 µg/mL (≈ 5.6 µM) | MIC Enterococccus faecalis (GC 4553) [1, 7]: 8 µg/mL (≈ 5.6 µM) | MIC Enterococccus faecalis (GC 4554) [1, 7]: 8 µg/mL (≈ 5.6 µM) | MIC Enterococccus faecalis (GC 6189) [1, 7]: 4 µg/mL (≈ 2.8 µM) | MIC Enterococccus faecium (GC 2243) [1, 7]: 4 µg/mL (≈ 2.8 µM) | MIC Enterococccus faecium (GC 4556) [1, 7]: 4 µg/mL (≈ 2.8 µM) | MIC Enterococccus faecium (GC 4557) [1, 7]: 2 µg/mL (≈ 1.4 µM) | MIC Enterococcus faecalis (GC 2242) [1, 7]: 4 µg/mL (≈ 2.8 µM) | MIC Escherichia coli (ATCC 25922) [2, 8]: 64 µg/mL (≈ 44.8 µM) | MIC Escherichia coli (GC 4559) [2, 8]: 64 µg/mL (≈ 44.8 µM) | MIC Escherichia coli (GC 4560) [2, 8]: 1 µg/mL (≈ 0.701 µM) | MIC Staphylococcus aureus (ATCC 29213) ([3]; strain ATCC 29213): 2 µg/mL (≈ 1.4 µM) | MIC Staphylococcus aureus (GC 1131) ([3]; strain GC 1131): 2 µg/mL (≈ 1.4 µM) | MIC Staphylococcus aureus (GC 3051) ([3]; strain GC 3051): 1 µg/mL (≈ 0.701 µM) | MIC Staphylococcus aureus (GC 3053) ([3]; strain GC 3053): 2 µg/mL (≈ 1.4 µM) | MIC Staphylococcus aureus (GC 4541) ([3]; strain GC 4541): 2 µg/mL (≈ 1.4 µM) | MIC Staphylococcus aureus (GC 4542) ([3]; strain GC 4542): 2 µg/mL (≈ 1.4 µM) | MIC Staphylococcus aureus-SMITH (GC 4543) ([3]; strain GC 4543, 18 hours at 35° C.): 1 µg/mL (≈ 0.701 µM) | MIC Staphylococcus aureus-SMITH (GC 4543) ([3]; strain GC 4543, broth dilution, 18 hours at 35° C.): 1 µg/mL (≈ 0.701 µM) | MIC Staphylococcus aureus (GC 4544) ([3]; strain GC 4544): 2 µg/mL (≈ 1.4 µM) | MIC Staphylococcus aureus (GC 4545) ([3]; strain GC 4545): 1 µg/mL (≈ 0.701 µM) | MIC Staphylococcus haemolyticus (GC 4546) ([3]; strain GC 4546): 1 µg/mL (≈ 0.701 µM) | MIC Staphylococcus haemolyticus (GC 4546) ([3]; strain GC 4546, broth dilution, 18 hours at 35° C.): 1 µg/mL (≈ 0.701 µM) | MIC Coagulase Negative Staphylococcus (GC 4547) ([3]; strain GC 4547): 2 µg/mL (≈ 1.4 µM) | MIC Coagulase Negative Staphylococcus (GC 4547) ([3]; strain GC 4547, broth dilution, 18 hours at 35° C.): 2 µg/mL (≈ 1.4 µM) | MIC Coagulase Negative Staphylococcus (GC 4548) ([3]; strain GC 4548): 1 µg/mL (≈ 0.701 µM) | MIC Coagulase Negative Staphylococcus (GC 4548) ([3]; strain GC 4548, broth dilution, 18 hours at 35° C.): 1 µg/mL (≈ 0.701 µM) | MIC Coagulase Negative Staphylococcus (GC 4549) ([3]; strain GC 4549): 1 µg/mL (≈ 0.701 µM) | MIC Coagulase Negative Staphylococcus (GC 4549) ([3]; strain GC 4549, broth dilution, 18 hours at 35° C.): 1 µg/mL (≈ 0.701 µM) | MIC Coagulase Negative Staphylococcus (GC 4551) ([3]; strain GC 4551): 2 µg/mL (≈ 1.4 µM) | MIC Coagulase Negative Staphylococcus (GC 4551) ([3]; strain GC 4551, broth dilution, 18 hours at 35° C.): 2 µg/mL (≈ 1.4 µM) | MIC Coagulase Negative Staphylococcus (GC 6257) ([3]; strain GC 6257): 1 µg/mL (≈ 0.701 µM) | MIC Coagulase Negative Staphylococcus (GC 6257) ([3]; strain GC 6257, broth dilution, 18 hours at 35° C.): 1 µg/mL (≈ 0.701 µM) | MIC Streptococcus agalactiae (GC 4564) [4, 7]: 0.5 µg/mL (≈ 0.35 µM) | MIC Streptococcus pneumoniae (GC 1894) [4, 7]: 0.12 µg/mL (≈ 0.0841 µM) | MIC Streptococcus pneumoniae (GC 4565) [4, 7]: 0.12 µg/mL (≈ 0.0841 µM) | MIC Streptococcus pneumonine (ATCC 6301) [4, 7]: 0.12 µg/mL (≈ 0.0841 µM) | MIC Streptococcus pyogenes (GC 4563) [4, 7]: 0.25 µg/mL (≈ 0.175 µM) | median effective dose (ED50), Staphylococcus aureus-SMITH (GC 4543) [5]: 0.28 mg/kg
